Where a name gives a salt, the structure may show the parent alone.
Each compound was assayed on Jurkat HIV-luciferase clones (assay: Jurkat latency reversal assay). Settings: Homo sapiens, Jurkat, 48 h.
Type: cell-based
Experimental: Jurkat HIV-luciferase clones were maintained in RPMI medium 1640 (Gibco by Life Technologies) containing 10% (vol/vol) fetal bovine serum (SAFC/Sigma-Aldrich) and 25 units/mL penicillin, 25 units/mL streptomycin (Gibco by Life Technologies), and were split 1:4 every 3 to 4 days to maintain a cell density of ˜0.3 to 1 million cells/mL. The Jurkat clones were maintained with the addition of 500 nM EFV in the medium. Three Jurkat cell clones (C16, I15, and N6), each harboring one or two integrated HIV proviruses expressing the luciferase reporter gene, were added at equal amounts for a total of 5,000 cells per well to 384-well plates containing compound titrations. Dose-response testing was performed on compounds dissolved in dimethyl sulfoxide (DMSO, Fisher Scientific, Merelbeke, Belgium) dispensed in duplicate serial 3-fold, 14-point titrations using a D300e Digital Droplet Dispenser (Hewlett-Packard) to give final assay concentrations of 10 μM to 2.1 pM in 50 μL of medium at 0.5% DMSO (vol/vol) final concentration. Cells and compound were incubated at 37° C. for 48 hours, unless otherwise indicated, followed by the addition of 20 μL of Steady-Glo® Luciferase (Promega). Luminescence resulting from the induction of the virally expressed luciferase was measured using an EnVision 2102 Multilabel Plate Reader (Perkin Elmer). Dose-response relationships were analyzed with GraphPad PRISM 6 using a four-parameter logistic regression model to calculate the concentration of compound that gives half-maximal response (EC50) and the maximal percent activation compared to the vehicle control.

SMILES	EC50
CN[C@@H](C)C(=O)N[C@H]1CCS[C@H]2CC(C)(C)[C@@H](C(=O)N[C@H]3c4ccccc4C[C@H]3C(=O)NCC#CC#CCNC(=O)[C@@H]3Cc4ccccc4[C@@H]3NC(=O)[C@H]3N4C(=O)[C@@H](NC(=O)[C@H](C)NC)CCS[C@H]4CC3(C)C)N2C1=O [compound 49, (4S,7S,9aS)-N-[(1R,2R)-2-[(6-{[(1R,2R)-1-[(4S,7S,9aS)-8,8-dimethyl-4-[(2S)-2-(methylamino)propanamido]-5-oxo-octahydropyrrolo[2,1-b][1,3]thiazepine-7-amido]-2,3-dihydro-1H-inden-2-yl]formamido}hexa-2,4-diyn-1-yl)carbamoyl]-2,3-dihydro-1H-inden-1-yl]-8,8-dimethyl-4-[(2S)-2-(methylamino)propanamido]-5-oxo-octahydropyrrolo[2,1-b][1,3]thiazepine-7-carboxamide]	466 nM
CN[C@@H](C)C(=O)N[C@H]1CCS[C@H]2CC(C)(C)[C@@H](C(=O)N[C@H]3c4ccccc4C[C@H]3OCCOCCO[C@@H]3Cc4ccccc4[C@@H]3NC(=O)[C@H]3N4C(=O)[C@@H](NC(=O)[C@H](C)NC)CCS[C@H]4CC3(C)C)N2C1=O [compound 18, (4S,4′S,7S,7′S,9aS,9a′S)-N,N′-((1S,1′S,2R,2′R)-((oxybis(ethane-2,1-diyl))bis(oxy))bis(2,3-dihydro-1H-indene-2,1-diyl))bis(8,8-dimethyl-4-((S)-2-(methylamino)propanamido)-5-oxooctahydropyrrolo[2,1-b][1,3]thiazepine-7-carboxamide) dihydrochloride]	22.3 nM
CN[C@@H](C)C(=S)NC1CCS[C@H]2CC(C)(C)[C@@H](C(=O)N[C@H]3c4ccccc4CC[C@H]3C(=O)NCc3ccc(CNC(=O)[C@@H]4CCc5ccccc5C4NC(=O)[C@H]4N5C(=O)[C@@H](NC(=S)[C@H](C)NC)CCS[C@H]5CC4(C)C)cc3)N2C1=O (stereo in doubt) [compound 10, (4S,4′S,7S,7′S,9aS,9a′S)-N,N′-((1R,1′R,2R,2′R)-(((1,4-phenylenebis(methylene))bis(azanediyl))bis(carbonyl))bis(1,2,3,4-tetrahydronaphthalene-2,1-diyl))bis(8,8-dimethyl-4-((S)-2-(methylamino)propanethioamido)-5-oxooctahydropyrrolo[2,1-b][1,3]thiazepine-7-carboxamide)]	43.4 nM
CN[C@@H](C)C(=S)N[C@H]1CCS[C@H]2CC(C)(C)[C@@H](C(=O)N[C@H](COCc3ccc(COC[C@@H](NC(=O)[C@H]4N5C(=O)[C@@H](NC(=S)[C@H](C)NC)CCS[C@H]5CC4(C)C)c4ccccc4)cc3)c3ccccc3)N2C1=O [compound 43, (4S,4′S,7S,7′S,9aS,9a′S)-N,N′-((1S,1′S)-((1,4-phenylenebis(methylene))bis(oxy))bis(1-phenylethane-2,1-diyl))bis(8,8-dimethyl-4-((S)-2-(methylamino)propanethioamido)-5-oxooctahydropyrrolo[2,1-b][1,3]thiazepine-7-carboxamide) dihydrochloride]	43.4 nM
CN[C@@H](C)C(=O)N[C@H]1CCS[C@H]2CC(C)(C)[C@@H](C(=O)N[C@H]3c4ccccc4C[C@H]3OCCCCO[C@@H]3Cc4ccccc4[C@@H]3NC(=O)[C@H]3N4C(=O)[C@@H](NC(=O)[C@H](C)NC)CCS[C@H]4CC3(C)C)N2C1=O [compound 16, (4S,4′S,7S,7′S,9aS,9a′S)-N,N′-((1S,1′S,2R,2′R)-(butane-1,4-diylbis(oxy))bis(2,3-dihydro-1H-indene-2,1-diyl))bis(8,8-dimethyl-4-((S)-2-(methylamino)propanamido)-5-oxooctahydropyrrolo[2,1-b][1,3]thiazepine-7-carboxamide)]	10.1 nM
CN[C@@H](C)C(=S)N[C@H]1CCS[C@H]2CC(C)(C)[C@@H](C(=O)N[C@H]3c4ccccc4C[C@H]3OCCOCCO[C@@H]3Cc4ccccc4[C@@H]3NC(=O)[C@H]3N4C(=O)[C@@H](NC(=S)[C@H](C)NC)CCS[C@H]4CC3(C)C)N2C1=O [compound 19, (4S,4′S,7S,7′S,9aS,9a′S)-N,N′-((1S,1′S,2R,2′R)-((oxybis(ethane-2,1-diyl))bis(oxy))bis(2,3-dihydro-1H-indene-2,1-diyl))bis(8,8-dimethyl-4-((S)-2-(methylamino)propanethioamido)-5-oxooctahydropyrrolo[2,1-b][1,3]thiazepine-7-carboxamide) dihydrochloride]	9.4 nM
CN[C@@H](C)C(=O)N[C@H]1CCS[C@H]2CC(C)(C)[C@@H](C(=O)Nc3ccc(Cc4ccc(NC(=O)[C@H]5N6C(=O)[C@@H](NC(=O)[C@H](C)NC)CCS[C@H]6CC5(C)C)cc4)cc3)N2C1=O [compound 1, (4S,4′S,7S,7′S,9aS,9a′S)-N,N′-(methylenebis(4,1-phenylene))bis(8,8-dimethyl-4-((S)-2-(methylamino)propanamido)-5-oxooctahydropyrrolo[2,1-b][1,3]thiazepine-7-carboxamide)]	47 nM
CN[C@@H](C)C(=S)N[C@H]1CCS[C@H]2CC(C)(C)[C@@H](C(=O)N[C@H](C(=O)N3CCN(C(=O)[C@@H](NC(=O)[C@H]4N5C(=O)[C@@H](NC(=S)[C@H](C)NC)CCS[C@H]5CC4(C)C)c4ccccc4)CC3)c3ccccc3)N2C1=O [compound 27, (4S,4′S,7S,7′S,9aS,9a′S)-N,N′-((1S,1′S)-piperazine-1,4-diylbis(2-oxo-1-phenylethane-2,1-diyl))bis(8,8-dimethyl-4-((S)-2-(methylamino)propanethioamido)-5-oxooctahydropyrrolo[2,1-b][1,3]thiazepine-7-carboxamide) dihydrochloride]	52.2 nM
CN[C@@H](C)C(=S)N[C@H]1CCS[C@H]2CC(C)(C)[C@@H](C(=O)N[C@H](C(=O)NCc3ccc(CNC(=O)[C@@H](NC(=O)[C@H]4N5C(=O)[C@@H](NC(=S)[C@H](C)NC)CCS[C@H]5CC4(C)C)c4ccccc4)cc3)c3ccccc3)N2C1=O [compound 25, (4S,4′S,7S,7′S,9aS,9a′S)-N,N′-((1S,1′S)-((1,4-phenylenebis(methylene))bis(azanediyl))bis(2-oxo-1-phenylethane-2,1-diyl))bis(8,8-dimethyl-4-((S)-2-(methylamino)propanethioamido)-5-oxooctahydropyrrolo[2,1-b][1,3]thiazepine-7-carboxamide) dihydrochloride]	61.8 nM
CN[C@@H](C)C(=S)N[C@H]1CCS[C@H]2CC(C)(C)[C@@H](C(=O)N[C@H](COCCCCCCOC[C@@H](NC(=O)[C@H]3N4C(=O)[C@@H](NC(=S)[C@H](C)NC)CCS[C@H]4CC3(C)C)c3ccccc3)c3ccccc3)N2C1=O [compound 41, (4S,4′S,7S,7′S,9aS,9a′S)-N,N′-((1S,1′S)-(hexane-1,6-diylbis(oxy))bis(1-phenylethane-2,1-diyl))bis(8,8-dimethyl-4-((S)-2-(methylamino)propanethioamido)-5-oxooctahydropyrrolo[2,1-b][1,3]thiazepine-7-carboxamide) dihydrochloride]	51.6 nM
CN[C@@H](C)C(=S)N[C@H]1CCS[C@H]2CC(C)(C)[C@@H](C(=O)N[C@H]3c4ccccc4C[C@H]3C(=O)NCc3ccc(CNC(=O)[C@@H]4Cc5ccccc5[C@@H]4NC(=O)[C@H]4N5C(=O)[C@@H](NC(=S)[C@H](C)NC)CCS[C@H]5CC4(C)C)cc3)N2C1=O [compound 44, (4S,7S,9aS)-N-[(1R,2R)-2-({[4-({[(1R,2R)-1-[(4S,7S,9aS)-8,8-dimethyl-4-[(2S)-2-(methylamino)propanethioamido]-5-oxo-octahydropyrrolo[2,1-b][1,3]thiazepine-7-amido]-2,3-dihydro-1H-inden-2-yl]formamido}methyl)phenyl]methyl}carbamoyl)-2,3-dihydro-1H-inden-1-yl]-8,8-dimethyl-4-[(2S)-2-(methylamino)propanethioamido]-5-oxo-octahydropyrrolo[2,1-b][1,3]thiazepine-7-carboxamide]	20.4 nM
CN[C@@H](C)C(=O)N[C@H]1CCS[C@H]2CC(C)(C)[C@@H](C(=O)Nc3ccc(CCc4ccc(NC(=O)[C@H]5N6C(=O)[C@@H](NC(=O)[C@H](C)NC)CCS[C@H]6CC5(C)C)cc4)cc3)N2C1=O [compound 5, (4S,4′S,7S,7′S,9aS,9a′S)-N,N′-(ethane-1,2-diylbis(4,1-phenylene))bis(8,8-dimethyl-4-((S)-2-(methylamino)propanamido)-5-oxooctahydropyrrolo[2,1-b][1,3]thiazepine-7-carboxamide) ditrifluoroacetate]	53.6 nM
CN[C@@H](C)C(=S)N[C@H]1CCS[C@H]2CC(C)(C)[C@@H](C(=O)N[C@H]3c4ccccc4C[C@H]3OCc3ccc(CO[C@@H]4Cc5ccccc5[C@@H]4NC(=O)[C@H]4N5C(=O)[C@@H](NC(=S)[C@H](C)NC)CCS[C@H]5CC4(C)C)cc3)N2C1=O [compound 23, (4S,4′S,7S,7′S,9aS,9a′S)-N,N′-((1S,1′S,2R,2′R)-((1,4-phenylenebis(methylene))bis(oxy))bis(2,3-dihydro-1H-indene-2,1-diyl))bis(8,8-dimethyl-4-((S)-2-(methylamino)propanethioamido)-5-oxooctahydropyrrolo[2,1-b][1,3]thiazepine-7-carboxamide)]	55.5 nM

From patent publication US11492361B2, “Compounds useful in HIV therapy” (GlaxoSmithKline Intellectual Property Development Limited, priority 2018, dated 2022)
